Legend:
Hey = assay: HEY cell growth, MTT; format: cell-based, human; conditions: 100 μg/ml, day 6
Procedure: NIH3T3 (Yi, et al., Blood 85, 87 (1995)), WM9 (Forsberg, et al., Proc. Nat. Acad Sci. USA 90, 393 (1993)), DU145 (Mickey, et al., Cancer Res. 37, 4049 (1977)), LoVo (Drewinko, et al., Cancer Res. 36, 467 (1976)), HEY (Buick, et al., Cancer Res. 45, 3668 (1985)), U251 (Yoshida, et al., Cancer 50, 410 (1982)), A549 (Giard, et al., J. Natl. Cancer Inst. 51, 1417 (1973)) and SK-N-SH (Helson, et al., Cancer Res. 35, 2594 (1975)) cell lines have been described and were cultured in RPMI 1640 supplemented with 10% fetal calf serum (FCS). For measurement of sodium stibogluconate effects on cell growth in vitro, cells were cultured in the absence (−) or presence (+) of various amounts of sodium stibogluconate for 6 days with viable cells quantified by MTT assays (Mosmann, J. Immunol. Methods 65, 55 (1983)). Percentages of growth inhibition by sodium stibogluconate were calculated (.+−.x%).

NB4 cells = assay: NB4 differentiation (NBT reduction, CD11b); format: cell-based, human; conditions: 6 days with drug, washed, 6 days without
Procedure: Differentiation of AML cell lines was assessed by their ability to produce superoxide as measured by reduction of NBT to formazan and by analysis of expression of CD11b surface marker by flow cytometry. For NBT reduction, each cell suspension was mixed with an equal volume of solution containing 1 mg/ml of NBT (Sigma) and 2.5 μg/ml of TPA for 30 minutes at 37° C. After incubation, cells containing the purple formazan deposits and cells devoid of NBT-reducing activity (white cells) in each sample were determined by counting 200 cells under microscope. Data is expressed as a percentage based on the following ratio: purple cells/purple+white cells. For analysis of cell surface antigens, cells were exposed to phycoerythrin (PE)-conjugated murine anti-human CD11b (DAKO Corp., Carpinteria, Calif.). Analysis of fluorescence was performed on a FACScan flow cytometer (Beckton Dickinson, Mountain View, Calif.).

DU145R cells = assay: DU145R cell growth, MTT; format: cell-based, human; conditions: day 6 culture
Procedure: DU145 cells were cultured in the presence of sodium stibogluconate (100 μg/ml) in 48 well plates for 3 weeks. Cells from a well containing a single colony were transferred to flasks, cultured in sodium stibogluconate-free medium for 3 weeks and used as DU145R cells for further characterization. Growth of DU145R cells in the absence or presence of sodium stibogluconate in day 6 culture was determined by MTT assays. cDNAs of the coding region of PRLs were derived by RT-PCR from DU145 and DU145R cells and sequenced using primers described below.

Renca tumors = Renca tumors in Balb/c mice; format: in vivo; conditions: Balb/c mice, two weeks
Procedure: Balb/c and athymic nude Balb/c mice (10 weeks old, female, Taconic Farms, Germantown, N.Y.) were inoculated (s.c.) at the flanks with Renca cells (10^6 cells/site). Four days post-inoculation, the mice were subject to no treatment (Control) or treatment with IL-2 ([…]/daily for 5 days, i.p.), SSG (12 mg/daily, i.m. at hip regions) or the combination of the two agents for two weeks. […] The dose of SSG was similar to the effective daily dose of the drug for the treatment of murine leishmaniasis (Murray, H. W., J. D. Berman, and S. D. Wright. 1988. Immunochemotherapy for intracellular Leishmania donovani infection: gamma interferon plus pentavalent antimony. J Infect Dis 157:973). Tumor volume was measured during the study period and calculated using the formula for a prolate spheroid (V=4/3×a2b) (Lindner, D. J., E. C. Borden, and D. V. Kalvakolanu. 1997. Synergistic antitumor effects of a combination of interferons and retinoic acid on human tumor cells in vitro and in vivo. Clin Cancer Res 3:931). Student's t test was used for assessing the significance of tumor volume differences among differential treatment groups. Mouse viability (daily) and body weights (weekly) were also recorded during the study period. At the end of the study, Renca tumors and major internal organs (heart, kidney, liver, lung and spleen) were harvested for histology and immunohistochemistry analysis.

[1] = tested on: Stat1 tyrosine phosphorylation; assay: IFN-alpha-induced Stat1 tyrosine phosphorylation, Western blotting; format: cell-based, human
Procedure: For induction of Stat1 tyrosine phosphorylation by IFN-alpha in the absence or presence of sodium stibogluconate, cells grown in 10% FCS RPMI 1640 medium at 37° C. were stimulated with IFN-alpha (50 u/ml) for various time points and treated with or without sodium stibogluconate for 5 minutes prior to termination by lysing the cells in cold lysis buffer (1% NP-40; 50 mM Tris, pH 7.4; 100 mM NaCl; 1 mM EDTA, 10% glycerol, 10 mM sodium molybdic acid and 4 mM AEBSF).
Cell lysates were prepared by lysing cells in cold lysis buffer for 30 min and cleared by centrifuging at 14,000 rpm at 4° C. for 15 min. For SDS-PAGE, cell lysates were mixed with equal volume of 2×SDS-PAGE sample buffer, heated at 90° C. for 5 min and separated in 10% SDS-PAGE gels. Cellular proteins in SDS-PAGE gels were transferred to nitrocellulose membrane (Schleicher & Schuell, Keene, N.H.), blocked in 5% milk, probed with antibodies and detected by using an enhanced chemiluminescence kit (ECL, Amersham, Arlington Heights, Ill.).

Structure (SMILES): O.O.O.O.O.O.O.O.O.O=C([O-])[C@@H]1[O][Sb]2([O-])([O][Sb]34([OH])[O][C@H]([C@H](O)CO)[C@H]([O]3)[C@H](C(=O)[O-])[O]4)[O][C@H]([C@H](O)CO)[C@@H]1[O]2.[Na+].[Na+].[Na+] [sodium stibogluconate]
- cell killing of Hey (Hey): near-complete cell killing
- reversal of NB4 differentiation after drug removal (NB4 cells): not reversed
- growth of DU145R versus parental DU145 in presence of drug (DU145R cells): growth resistance
- tolerance of treatment (Renca tumors): tolerated well
- IFN-alpha-induced Stat1 tyrosine phosphorylation ([1]; DR cells, 10 μg/ml, 30 min post-stimulation): approximately two folds greater than control
- Stat1 tyrosine phosphorylation by drug itself ([1]; DR cells, absence of IFN-alpha): failed to induce Stat1 tyrosine phosphorylation
- IFN-alpha-induced Stat1 tyrosine phosphorylation ([1]; DU145, 5 hours post-stimulation): Enhanced Stat1 tyrosine phosphorylation
- IFN-alpha-induced Stat1 tyrosine phosphorylation ([1]; WM9, 5 hours post-stimulation): Enhanced Stat1 tyrosine phosphorylation
- IFN-alpha-induced Stat1 tyrosine phosphorylation ([1]; WM35): failed to enhance
- IFN-alpha-induced Stat1 tyrosine phosphorylation ([1]; WiT49-N1): failed to enhance

From patent US20070202079A1, “Therapeutic compositions and methods useful in modulating protein tyrosine phosphatases” (priority 2006, published 2007)
